# Test results as given in US5602230A, “Peptide inhibitors of selectin binding” (Centocor, Inc., priority 1995, dated 1997).
# Where no end group is shown, it is not given here. The star is where a group is joined. Nif = α,α,α-trifluoro-m-toluidino-nicotinyl, O=C(c1cccnc1Nc1cccc(C(F)(F)F)c1)*
# Target: T1, purified human P-selectin (Homo sapiens, UniProt P16109)
# T1 construct: P-selectin is isolated from human platelet lysates; from tissue; host or cells: outdated human platelet packs (platelet lysates)
# T1 sequence (P16109 42-830): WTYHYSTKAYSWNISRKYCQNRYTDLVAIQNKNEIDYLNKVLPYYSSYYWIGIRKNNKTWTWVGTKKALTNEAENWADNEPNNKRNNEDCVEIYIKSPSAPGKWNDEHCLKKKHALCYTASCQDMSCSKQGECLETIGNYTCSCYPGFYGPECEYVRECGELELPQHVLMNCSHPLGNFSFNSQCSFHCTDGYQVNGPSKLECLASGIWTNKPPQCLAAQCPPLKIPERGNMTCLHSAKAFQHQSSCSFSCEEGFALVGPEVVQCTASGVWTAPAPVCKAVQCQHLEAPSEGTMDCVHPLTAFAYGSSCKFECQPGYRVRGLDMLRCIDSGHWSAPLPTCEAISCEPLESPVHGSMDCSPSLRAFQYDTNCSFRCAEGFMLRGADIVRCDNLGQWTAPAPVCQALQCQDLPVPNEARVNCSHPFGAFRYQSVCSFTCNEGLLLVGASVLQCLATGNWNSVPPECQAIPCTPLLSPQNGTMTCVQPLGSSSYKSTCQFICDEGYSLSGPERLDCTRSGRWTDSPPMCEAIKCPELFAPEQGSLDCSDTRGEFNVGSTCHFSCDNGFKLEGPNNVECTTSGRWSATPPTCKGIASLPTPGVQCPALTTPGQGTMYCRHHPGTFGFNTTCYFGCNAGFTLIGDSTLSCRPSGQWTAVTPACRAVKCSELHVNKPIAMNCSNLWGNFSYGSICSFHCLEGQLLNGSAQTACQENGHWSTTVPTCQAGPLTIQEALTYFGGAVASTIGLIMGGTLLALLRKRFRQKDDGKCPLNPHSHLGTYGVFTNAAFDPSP
# Assay: Neutrophil adhesion to purified P-selectin immobilized on plastic wells
# Format: cell-based
# Details: result in words
# Source text: Peptides can be screened for their ability to inhibit adhesion to cells, for example, neutrophil adhesion to purified P-selectin immobilized on plastic wells, using the assay described by Geng, et al., Nature 343, 757-760 (1990).
# Human neutrophils are isolated from heparinized whole blood by density gradient centrifugation on Mono-Poly resolving media, Flow Laboratories. Neutrophil suspensions are greater than 98% pure and greater than 95% viable by trypan blue exclusion. For adhesion assays, neutrophils are suspended at a concentration of 2×10^6 cells/mL in Hanks' balanced salt solution containing 1.26 mM Ca^2+ and 0.81 mM Mg^2+ (HBSS, Gibco) with […] human serum albumin (HBSS/HSA). Adhesion assays are conducted in triplicate in 96-well microtiter plates, Corning, incubated at 4° C. overnight with 50 microliters of various protein solutions.
# P-selectin is isolated from human platelet lysates by immunoaffinity chromatography on antibody S12-Sepharose™ and ion-exchange chromatography on a Mono-Q™ column (FLPC, Pharmacia Fine Chemicals), as follows. […]
# Bound P-selectin is eluted from the S12 Affigel with 100 mL of 80% ethylene glycol, 1 mM MES pH 6.0, 0.01% Lubrol PX. Peak fractions with absorbance at 280 nm are pooled. […]
row,Substance,inhibit the adhesion of human neutrophils to purified human P-selectin (FIG. I)
1,"YTDLVAI-NH2 [SEQ ID NO: 4, Tyr-Thr-Asp-Leu-Val-Ala-Ile-NH2]",inhibit the adhesion
2,SEQ ID NO: 10: peptide of Formula I shown in FIG. I; its sequence is not printed in the text (Nif-TDLVAIQ-NH2),inhibit the adhesion
